Measurements from the supplement of paper PMC10307832.

What was measured:
Test in all cases: relative viability (nuclei count vs DMSO), 5 days (fraction); higher = more cells survive
AZ505 + Crizotinib = compound: C1CCC(CC1)N(CCNCCC2=C3C(=C(C=C2)O)NC(=O)CO3)C(=O)CCNCCC4=CC(=C(C=C4)Cl)Cl [AZ505] + C[C@@H](Oc1cc(-c2cnn(C3CCNCC3)c2)cnc1N)c1c(Cl)ccc(F)c1Cl [Crizotinib] (partner 1 µM)
In short: (§1)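 Lung cancer cell lines were pin-tool dosed in 1536-well plates on the day after seeding, with either a lone drug or a fixed anchor-drug dose plus five library-drug doses (not always all listed) in √10 steps. Nuclei were counted on 4× images after 5 days. Relative viability is the ratio of treated-well to vehicle-well nuclei counts, with each value a median of duplicate plates.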

Dactolisib + Phenformin = compound: Cn1c(=O)n(-c2ccc(C(C)(C)C#N)cc2)c2c3cc(-c4cnc5ccccc5c4)ccc3ncc21 [Dactolisib] + N=C(N)NC(=N)NCCc1ccccc1 [Phenformin] (partner 250 µM)
In short: as §1

Dactolisib + Pemetrexed = compound: Cn1c(=O)n(-c2ccc(C(C)(C)C#N)cc2)c2c3cc(-c4cnc5ccccc5c4)ccc3ncc21 [Dactolisib] + Nc1nc2[nH]cc(CCc3ccc(C(=O)N[C@@H](CCC(=O)O)C(=O)O)cc3)c2c(=O)[nH]1 [Pemetrexed] (partner 0.2 µM)
In short: as §1

AZ505 + OSI-027 = compound: C1CCC(CC1)N(CCNCCC2=C3C(=C(C=C2)O)NC(=O)CO3)C(=O)CCNCCC4=CC(=C(C=C4)Cl)Cl [AZ505] + COc1cccc2cc(-c3nc([C@H]4CC[C@H](C(=O)O)CC4)n4ncnc(N)c34)[nH]c12 [OSI-027] (partner 0.5 µM)
In short: as §1

## UMC-11
AZ505 + Crizotinib; first compound 0.08 µM
  relative viability: 0.537
AZ505 + Crizotinib; first compound 0.253 µM
  relative viability: 0.588
AZ505 + Crizotinib; first compound 0.8 µM
  relative viability: 0.639
AZ505 + Crizotinib; first compound 2.53 µM
  relative viability: 0.709
AZ505 + Crizotinib; first compound 8 µM
  relative viability: 0.573
Dactolisib + Phenformin; first compound 0.002 µM
  relative viability: 0.326
Dactolisib + Phenformin; first compound 0.006325 µM
  relative viability: 0.326
Dactolisib + Phenformin; first compound 0.02 µM
  relative viability: 0.315
Dactolisib + Phenformin; first compound 0.06325 µM
  relative viability: 0.218
Dactolisib + Phenformin; first compound 0.2 µM
  relative viability: 0.22
Dactolisib + Pemetrexed; first compound 0.002 µM
  relative viability: 0.855
Dactolisib + Pemetrexed; first compound 0.006325 µM
  relative viability: 0.742
Dactolisib + Pemetrexed; first compound 0.02 µM
  relative viability: 0.552
Dactolisib + Pemetrexed; first compound 0.06325 µM
  relative viability: 0.453
Dactolisib + Pemetrexed; first compound 0.2 µM
  relative viability: 0.26
AZ505 + OSI-027; first compound 0.08 µM
  relative viability: 0.413
AZ505 + OSI-027; first compound 0.253 µM
  relative viability: 0.53
AZ505 + OSI-027; first compound 0.8 µM
  relative viability: 0.452
AZ505 + OSI-027; first compound 2.53 µM
  relative viability: 0.476
AZ505 + OSI-027; first compound 8 µM
  relative viability: 0.492
